Source: US10676479B2, “Imidazolepyridine compounds and uses thereof” (Novartis AG, priority 2016, dated 2020)
pIC50: −log10 of the molar value.

Columns and labels:
EED (1-441)-His protein = EED (1-441)-His protein (Homo sapiens (Human), UniProt O75530); experiment: EED-H3K27Me3 peptide competition binding assay by AlphaScreen; settings: EED Alphascreen binding Qualified assay
[1] = test system: H3K27 methylation in G401 cell; experiment: ELISA (H3K27 methylation) assay; format: cell-based; settings: Homo sapiens, G-401, ELISA Qualified assay, 48 h, read-out: (c) IC50
Procedure, shortened: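 G401 cells given 3-fold serial dilutions (eight or twelve points, top 20 μM) for 48 h. Lysate ELISA for H3K27 methylation normalized to H3 signal, % inhibition versus DMSO, IC50 from dose-response fit.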

[2] = biological target: wild type PRC2 (wtPRC2) complex (Homo sapiens (Human), UniProt O75530); experiment: EED LC-MS assay; format: biochemical; settings: EED LC-MS Qualified assay; read-out: (b) IC50
Method: EED LC-MS Assay Representative compounds of the present invention were serially and separately diluted 3-fold in DMSO to obtain a total of eight or twelve concentrations. […] A 6 μL solution of 3 μM of the peptide substrate H3K27Me0 (histone H3[21-44]-biotin) in reaction buffer was added to initiate each reaction. […] The data were then fit to a dose response equation using the program Helios to get the IC50 values of the test compound.

Chain of wild type PRC2 (wtPRC2) complex (O75530 whole entry): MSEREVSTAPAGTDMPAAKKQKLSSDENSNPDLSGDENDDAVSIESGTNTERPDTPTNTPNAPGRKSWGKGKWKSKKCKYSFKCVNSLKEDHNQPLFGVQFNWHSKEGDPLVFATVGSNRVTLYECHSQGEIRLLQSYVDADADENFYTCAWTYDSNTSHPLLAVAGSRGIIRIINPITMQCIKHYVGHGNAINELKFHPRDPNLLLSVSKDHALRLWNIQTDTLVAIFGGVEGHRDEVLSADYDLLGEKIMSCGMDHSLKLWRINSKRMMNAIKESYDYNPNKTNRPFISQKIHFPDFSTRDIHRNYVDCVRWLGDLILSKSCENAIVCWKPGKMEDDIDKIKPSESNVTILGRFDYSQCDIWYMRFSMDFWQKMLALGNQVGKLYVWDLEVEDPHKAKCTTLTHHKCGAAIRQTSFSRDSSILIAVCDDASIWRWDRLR
Chain of wild type PRC2 (wtPRC2) complex (Q15910 whole entry partner): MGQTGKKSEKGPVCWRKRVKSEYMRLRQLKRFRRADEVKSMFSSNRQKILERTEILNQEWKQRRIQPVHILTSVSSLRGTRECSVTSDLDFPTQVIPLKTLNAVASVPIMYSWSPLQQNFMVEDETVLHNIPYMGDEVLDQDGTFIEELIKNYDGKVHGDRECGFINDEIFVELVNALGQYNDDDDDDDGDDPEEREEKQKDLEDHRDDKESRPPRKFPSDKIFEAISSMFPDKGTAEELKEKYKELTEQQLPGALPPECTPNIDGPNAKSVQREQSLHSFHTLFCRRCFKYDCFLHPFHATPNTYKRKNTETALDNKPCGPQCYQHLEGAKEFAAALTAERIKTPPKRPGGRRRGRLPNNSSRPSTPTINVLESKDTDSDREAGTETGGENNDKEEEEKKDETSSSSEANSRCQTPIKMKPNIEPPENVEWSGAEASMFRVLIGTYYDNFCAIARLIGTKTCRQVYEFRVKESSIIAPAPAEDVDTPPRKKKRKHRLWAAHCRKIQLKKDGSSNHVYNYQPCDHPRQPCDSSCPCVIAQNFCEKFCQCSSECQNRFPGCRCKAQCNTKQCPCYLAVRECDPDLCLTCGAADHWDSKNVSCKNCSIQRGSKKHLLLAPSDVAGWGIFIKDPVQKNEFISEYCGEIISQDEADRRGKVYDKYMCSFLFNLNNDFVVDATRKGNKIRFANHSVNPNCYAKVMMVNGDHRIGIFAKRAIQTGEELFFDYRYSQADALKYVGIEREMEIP
Chain of wild type PRC2 (wtPRC2) complex (Q15022 whole entry partner): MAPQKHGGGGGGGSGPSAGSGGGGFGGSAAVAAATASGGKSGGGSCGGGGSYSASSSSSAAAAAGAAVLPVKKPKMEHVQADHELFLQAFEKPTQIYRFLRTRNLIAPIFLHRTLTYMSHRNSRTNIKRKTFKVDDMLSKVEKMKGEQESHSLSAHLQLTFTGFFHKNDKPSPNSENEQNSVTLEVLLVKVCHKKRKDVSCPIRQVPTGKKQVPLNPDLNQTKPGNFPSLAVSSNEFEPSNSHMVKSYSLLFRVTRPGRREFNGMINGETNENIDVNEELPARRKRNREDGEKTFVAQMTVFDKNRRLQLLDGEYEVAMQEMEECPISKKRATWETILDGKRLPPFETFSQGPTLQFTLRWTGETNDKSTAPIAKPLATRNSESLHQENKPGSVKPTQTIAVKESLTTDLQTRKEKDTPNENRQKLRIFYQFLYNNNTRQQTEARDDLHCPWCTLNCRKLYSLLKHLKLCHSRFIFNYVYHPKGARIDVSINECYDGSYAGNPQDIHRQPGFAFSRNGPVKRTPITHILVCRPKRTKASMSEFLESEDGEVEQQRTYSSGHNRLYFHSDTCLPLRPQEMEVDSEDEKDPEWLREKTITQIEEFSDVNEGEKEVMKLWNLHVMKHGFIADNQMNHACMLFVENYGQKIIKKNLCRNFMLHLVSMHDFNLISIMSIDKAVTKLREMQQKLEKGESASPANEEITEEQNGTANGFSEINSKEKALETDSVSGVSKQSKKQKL
Chain of EED (1-441)-His protein (O75530 whole entry): as the sequence (O75530 whole entry) above

pIC50 (EED (1-441)-His protein)	pIC50 [1]	pIC50 [2]	Compound
8.28	8.19	8.03	Fc1ccc2c(c1CNc1ncc(-c3cccnc3C(F)F)c3cncn13)CCO2 [Example 51, 8-(2-(difluoromethyl)pyridin-3-yl)-N-((5-fluoro-2,3-dihydrobenzofuran-4-yl)methyl)imidazo[1,5-c]pyrimidin-5-amine]
8.11	7.59	8.16	Cc1ncccc1-c1cnc(NCc2c(F)ccc3c2CCO3)n2cnc(C(=O)NCCO)c12 [Example 107, 5-(((5-fluoro-2,3-dihydrobenzofuran-4-yl)methyl)amino)-N-(2-hydroxyethyl)-8-(2-methylpyridin-3-yl)imidazo[1,5-c]pyrimidine-1-carboxamide]
8.32	8.59	8.26	CS(=O)(=O)c1ccc(-c2cnc(NCc3c(F)ccc4c3CCO4)n3cnc(-c4ncco4)c23)cc1 [Example 118, N-((5-fluoro-2,3-dihydrobenzofuran-4-yl)methyl)-8-(4-(methylsulfonyl)phenyl)-1-(oxazol-2-yl)imidazo[1,5-c]pyrimidin-5-amine]
7.75	7.18	7.55	CN1CCN(c2ccc(-c3cnc(NCc4c(F)ccc5c4CCO5)n4cncc34)cn2)CC1 [Example 40, N-((5-fluoro-2,3-dihydrobenzofuran-4-yl)methyl)-8-(6-(4-methylpiperazin-1-yl)pyridin-3-yl)imidazo[1,5-c]pyrimidin-5-amine]
7.80	6.94	7.77	CCOC(=O)c1ncn2c(NCc3cc(OC)c(F)cc3F)ncc(-c3cccnc3C)c12 [Example 96, ethyl 5-((2,4-difluoro-5-methoxybenzyl)amino)-8-(2-methylpyridin-3-yl)imidazo[1,5-c]pyrimidine-1-carboxylate]
